Results on one compound are retold here after article PMC13164762, “Development and Validation of an LC-MS/MS Method for the Quantitation of JNJ-64619178 (JNJ) in Mouse Plasma: Characterization of In Vitro and In Vivo Pharmacokinetic Properties” (Molecules, 2026).

Data set [1] in a line: Rapid equilibrium dialysis (RED) brain protein binding. It counts as in vitro ADME, mouse. Particulars: for fraction unbound at 5 h: mouse, brain homogenate. The method, then: (§1) A rapid equilibrium dialysis (RED) protein binding assay was performed to determine the protein binding of JNJ in plasma and brain matrix. The RED plate was obtained from Thermo Fisher Scientific (Frederick, MD, USA) for the experiment. An aliquot (200 µL) of JNJ spiked plasma/brain homogenate was poured into the donor chamber, and 400 µL dialysis buffer-PBS containing 100 mM sodium phosphate and 150 mM sodium chloride was added into the receiver compartment of each RED insert in triplicate. The plate was kept in incubation for 5 h on the orbital shaker at 37 °C. Following incubation, 50 µL plasma and buffer aliquots were collected separately, and an equal volume of opposite matrix was added. Collected samples were processed as previously described in Section 4.6 and analyzed using LC-MS/MS. Degree of protein binding (%) was calculated by the following equation:(6) Protein bound (%)=Concentrationdonor cell−Concentrationreceiver cell/Concentrationdonor cell×100

The test system of another data set is HD-MB cell line. Particulars: method and reference not given; cited from earlier work.
A short description of data set [2]: Rapid equilibrium dialysis (RED) plasma protein binding. It counts as in vitro ADME. Particulars: for fraction unbound at 5 h: mouse, plasma. On the procedure: as §1
Data set [3] can be described thus: Microsomal metabolic stability, mouse liver microsomes. It counts as in vitro ADME. The method, then:
Mouse and human liver microsomes were used for the metabolic stability assay. In brief, the incubation mixture (500 µL) consisted of phosphate-buffered saline (PBS) (100 mM, pH 7.4), microsomal protein (0.5 mg mL^−1), magnesium chloride (10 mM), and NADPH (2 mM). Following pre-incubation of the above reaction mixture for 10 min at 37 °C, the reaction was initiated by spiking JNJ at a final 1 µg mL^−1 concentration. Alongside the test compound, testosterone at a final concentration of 1 µg mL^−1 was incubated as a positive control. All experiments were performed in triplicate. At sampling times of 0, 5, 10, 20, 30, 45, and 60 min, 40 µL samples were collected and quenched with 300 µL ice-chilled acetonitrile supplemented with 10 µL IS. Simultaneously, samples from NADPH-free negative controls were also withdrawn and processed accordingly to confirm any non-enzymatic degradation. Finally, after 1 h of collection, samples were vortexed at 1000 rpm for 1 min and centrifuged at 2200× g for 15 min, and the collected supernatant was analyzed using LC-MS/MS.
The natural logarithm of the area ratio versus time was plotted, and the slope of the curve was calculated by a linear regression equation to generate the elimination rate constant, k (min^−1). CLint was calculated by the following equation:(2) CLint=0.693/t1/2×Volume of incubation mixture (mL)/microsomal protein (mg)
CLH,int of JNJ in the mouse and human liver was then estimated from CLint using the scaling factor.(3) CLH,int=CLint×Microsomal protein (mg)/Liver (g)×Liver weight (g)/Body weight (kg)
Here, 45 and 32 mg of microsomal protein per g of liver weight were applied, and 60 and 25 g of liver weight per kg body weight were used for mouse and human tissue, respectively.
Then, CLH,int was corrected for microsomal binding (CLH,int/fu,inc) and CLH,predict was predicted using the well-stirred model by the following equation:(4) CLH,predict=Q × fu,plasma×CLH,int/fu,inc /Q + fu,plasma×CLH,int/fu,inc
Here, Q is the hepatic blood flow (90 mL min^−1 kg^−1 in mouse), fu,plasma is the fraction unbound in plasma, fu,inc is the fraction unbound in microsomal incubation and CLH,int is included from Equation (3); fu,inc was calculated by adding logP of JNJ (2.3) to the following equation:(5) fu,inc=1/1 + 10^0.53 logP − 1.42
A general note: Liver microsomes are vesicles of endoplasmic reticulum, rich in cytochrome P450 enzymes.

Data set [4] can be described thus: Parallel artificial membrane permeability assay (PAMPA). It counts as physicochemical. Particulars: 5 µg mL^−1 in PBS, room temperature, read-out: apparent permeability (Papp), PAMPA. The method, then:
A Corning® BioCoat™ Pre-coated PAMPA Plate System, obtained from Corning Life Sciences (Glendale, AZ, USA), was used for the noncell-based permeability assay. As per the manufacturer’s instructions, the PAMPA plate was warmed at room temperature for 30 min to make it ready for use. A JNJ stock solution was prepared in PBS at a concentration of 5 µg mL^−1. Then, 300 µL of that prepared solution was poured into the donor side and 200 µL PBS was added to the acceptor side of each well in triplicate. After incubation for 5 h at room temperature, 50 µL samples were collected separately from the donor and acceptor chamber. Finally, samples were processed following the extraction procedure and analyzed using LC-MS/MS analysis. The apparent permeability coefficient is determined using the following formula:(8) Papp=−ln[1 − Cat/Ceq]/A ∗ 1/Vd + 1/Va∗t where Papp = apparent permeability in cm s^−1, Co = initial compound concentration in donor well (µg mL^−1), Cd(t) = compound concentration in donor well at time t (µg mL^−1), Ca(t) = compound concentration in acceptor well at time t (µg mL^−1), Vd = donor well volume (0.3 mL), Va = acceptor well volume (0.2 mL), A = filter area (0.3 cm^2), and t = incubation time (18,000 s). Ceq is calculated by(9) Ceq=[Cd(t)∗Vd+Ca(t)∗Va] /(Vd+Va)
For orientation: The PAMPA barrier holds no transporters, so it reflects passive diffusion.

Data set [5] can be described thus: Matrix stability study in mouse brain homogenate. Particulars: 5 µg mL^−1, 37 °C, approximately 5 h, triplicate, read-out: concentration remaining (%). It counts as in vitro ADME. The method, then:
For the matrix stability study, JNJ was spiked into mouse plasma and brain homogenate at a final concentration of 5 µg mL^−1 and incubated at 37 °C for 5 h on a shaking water bath in triplicate. At the specified sampling times, 50 µL aliquots were taken in the collection plate, followed by quenching with 300 µL acetonitrile containing 10 µL IS. After final collection, samples were vortexed at 1000 rpm for 2 min and centrifuged at 2200× g for 10 min, and the collected supernatant was analyzed using LC-MS/MS. Stability was estimated by determining the % remaining after 5 h of incubation using Equation (1).(1) % remaining=Concentration5h/Concentration0h×100

A further data set can be described thus: Kinetic solubility study. It counts as physicochemical. Particulars: PBS, room temperature, read-out: kinetic aqueous solubility. The method, then:
An amount of 500 µL of PBS was taken into a 96-well plate in the required rows. The required volume of the JNJ stock solution was spiked to make the final concentrations of 160, 80, 60, 50, 40, 20, 10, and 5 µg mL^−1. The plate was vortexed at 1000 rpm for 5 min and incubated at room temperature for 2 h. After incubation, aliquots of 100 µL of the samples were collected and diluted 2 times with acetonitrile. Diluted samples were centrifuged at 2200× g for 10 min. Then, 10 µL of supernatant was added to another collection plate, where previously 200 µL of the mobile phase supplemented with 10 µL IS was taken.

Each structure is given as a SMILES string. ≈ marks a conversion by molar mass, not a printed value. Where “and” joins values, the source holds several entries; their conditions need not be identical. Equal values may be shown once.

Regarding `Nc1nc2cc(CC[C@H]3C[C@@H](n4ccc5c(N)ncnc54)[C@H](O)[C@@H]3O)ccc2cc1Br` [JNJ, JNJ-64619178], the “Brain Protein Binding (%)” value in data set [1] (mouse brain homogenate, RED, 5 h, 37 °C, n = 3) was determined as 94 ± 1%. The fraction unbound at 5 h in data set [1] (mouse brain homogenate, RED, 5 h, 37 °C, n = 3, read-out: Brain Protein Binding (%)) was < 0.06; in data set [1] (mouse brain, read-out: fraction unbound in brain (fu,brain)) it was 0.057; in data set [2] (RED, 5 h, 37 °C, n = 3, read-out: Plasma Protein Binding (%)), < 0.06; in data set [2] (read-out: fraction unbound in plasma (fu,plasma)) it was 0.025. In the data set on HD-MB cell line, the IC50 is 1.7 µM. Moreover, in the data set on HD-MB cell line, the “In Vitro IC50” value is 0.821 µg/mL. Further, the “Plasma Protein Binding (%)” value in data set [2] (mouse plasma, RED, 5 h, 37 °C, n = 3) was found to be 97 ± 3%. Moreover, the “microsomal intrinsic clearance (CLint)” value in data set [3] (MLM, mean ± SD, n = 3) is reported as 0.02 ± 0.01 mL min^−1 mg^−1 protein. Further, the “hepatic intrinsic clearance (CLH,int)” value in data set [3] (MLM, scaled from CLint (45 mg protein/g liver, 60 g liver/kg)) is 41 ± 19 mL min^−1 kg^−1 body weight. In addition, in data set [3] (mice, in vitro scaling, well-stirred model), the “predicted in vivo hepatic clearance (CLH,predict)” value was 1.6 mL min^−1 kg^−1 body weight and 1.6 ± 0.7 mL min^−1 kg^−1 body weight. Moreover, the half-life at 1 µg mL^−1 in data set [3] (mouse, liver microsomes, pH 7.4, MLM, mean ± SD, n = 3, read-out: Half-life (t1/2)) stood at 1.68 ± 0.65 h. Besides, the remaining at 1 h, 1 µg mL^−1 in data set [3] (mouse, liver microsomes, pH 7.4, MLMs, NADPH, 1 µg mL^−1, n = 3, read-out: percent remaining concentration after 1 h incubation) was determined as 60 ± 12%. Besides, the Papp at 5 h, 5 µg mL^−1 in data set [4] came to 7 ± 4 ×10⁻⁶ cm/s. For the same compound, the remaining at 5 h, 5 µg mL^−1 in data set [5] was ~100%. In addition, in “Kinetic solubility study”, the kinetic solubility at 2 h turned out to be 3 ± 0.6 µg/mL (≈ 6.21 µM).

A word on the IC50: it is the concentration needed to halve the response being measured. In general, Papp refers to a coefficient for how fast a substance crosses the barrier. The term solubility (kinetic) denotes the concentration staying in solution when a stock, usually in DMSO, is diluted into the medium.
